Source: PubChem BioAssay AID180 (DTP/NCI, 2004)
“And” between values parts separate entries of the source, which are not always exact repeats. Equal values may be shown once.

System: BDF1 mice, Adenocarcinoma 755 s.c., tumor weight T/C
Test: NCI In Vivo Anticancer Drug Screen. Data for tumor model Adenocarcinoma 755 (subcutaneous) in B6D2F1 (BDF1) mice
Conditions: endpoint: mean tumor weight, schedule: Q01DX011 (ip), higher = larger tumour
Procedure, shortened: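 Compound activity was tested in mice carrying transplanted tumors. Survival or tumor size was measured, and each value is the treated-group measurement divided by that of the vehicle-treated control group (T/C).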

[1] = dose: 2.0 mg/kg/injection, vehicle: carboxymethylcellulose (CMC)

## CC1CN1P(=O)(OCCC#N)N1CC1C (stereo not given)
dose: 28.0 mg/kg/injection, vehicle: saline
  T/C: 90 % of control
dose: 56.0 mg/kg/injection, vehicle: saline
  T/C: 104 % of control
dose: 113.0 mg/kg/injection, vehicle: saline
  T/C: 77 % of control
dose: 225.0 mg/kg/injection, vehicle: saline
  T/C: 10 % of control

## CCCCNS(=O)(=O)c1ncnc2nc[nH]c12
[1]
  T/C: 115 % of control
dose: 6.0 mg/kg/injection, vehicle: carboxymethylcellulose (CMC)
  T/C: 44 % of control
dose: 12.0 mg/kg/injection, vehicle: carboxymethylcellulose (CMC)
  T/C: 13 % of control

## O=C1C(=O)C(Cl)=C(Cl)C(Cl)=C1Cl
dose: 7.5 mg/kg/injection, vehicle: carboxymethylcellulose (CMC)
  T/C: 78 % of control
dose: 15.0 mg/kg/injection, vehicle: carboxymethylcellulose (CMC)
  T/C: 90 % of control
dose: 60.0 mg/kg/injection, vehicle: carboxymethylcellulose (CMC)
  T/C: 97 % of control

## CSc1ncc(C)c(Nc2ccc(Cl)cc2)n1
dose: 15.0 mg/kg/injection, vehicle: methylcellulose (MC)
  T/C: 102 % of control

## COc1cc(-c2ccc(N=Nc3ccc4c(S(=O)(=O)O)cc(S(=O)(=O)O)c(N)c4c3O)c(OC)c2)ccc1N=Nc1ccc2c(S(=O)(=O)O)cc(S(=O)(=O)O)c(N)c2c1O
dose: 1.0 mg/kg/injection, vehicle: carboxymethylcellulose (CMC)
  T/C: 74 % of control
[1]
  T/C: 38 % of control
dose: 4.0 mg/kg/injection, vehicle: carboxymethylcellulose (CMC)
  T/C: 44 % of control
dose: 8.0 mg/kg/injection, vehicle: carboxymethylcellulose (CMC)
  T/C: 31 % of control and 43 % of control

## CCCCCn1cnc2c(SCc3ccccc3)nc(N)nc21
dose: 37.5 mg/kg/injection, vehicle: saline
  T/C: 68 % of control
dose: 75.0 mg/kg/injection, vehicle: saline
  T/C: 78 % of control
dose: 150.0 mg/kg/injection, vehicle: saline
  T/C: 77 % of control

## O=S(=O)(Nc1ccccc1)c1ccc(C2CC3(Cl)C(Cl)=C(Cl)C2(Cl)C3(Cl)Cl)cc1 (stereo not given)
dose: 28.12 mg/kg/injection, vehicle: methylcellulose (MC)
  T/C: 90 % of control and 109 % of control
dose: 112.5 mg/kg/injection, vehicle: methylcellulose (MC)
  T/C: 95 % of control and 107 % of control
dose: 225.0 mg/kg/injection, vehicle: methylcellulose (MC)
  T/C: 69 % of control

## CC(C)CCn1cnc2c(=S)nc(N)[nH]c21
dose: 1.5 mg/kg/injection, vehicle: methylcellulose (MC)
  T/C: 48 % of control
dose: 3.1 mg/kg/injection, vehicle: methylcellulose (MC)
  T/C: 37 % of control
dose: 6.2 mg/kg/injection, vehicle: methylcellulose (MC)
  T/C: 14 % of control
dose: 12.5 mg/kg/injection, vehicle: methylcellulose (MC)
  T/C: 1 % of control and 9 % of control
